Test system: ligated saphenous vein (LSV)
Assay: In vivo ligated saphenous vein damage: histopathological examination (H&E)
Design: species or system NMRI mice
Conditions: control (non-ligated) mice treated for 7 days; also no signs of tissue inflammation

CCC(C)(C)C(=O)O[C@H]1C[C@@H](C)C=C2C=C[C@H](C)[C@H](CC[C@@H]3C[C@@H](O)CC(=O)O3)[C@H]21 [Simvastatin]
changes in the lumen of the vessel: no significant changes

Reference: patent EP3845222A1, “MICROENCAPSULATED FORMULATION COMPRISING DIOSMIN, TROXERUTIN AND COUMARINS, COMPOSITIONS THEREOF AND USE THEREOF FOR THE TREATMENT OF CIRCULATORY DISORDERS” (Pharma Line S.r.l., priority 2019, dated 2021)
